Measurements from patent publication US20110251247A1, “SUBSTITUTED ISOXAZOLINE DERIVATIVES” (PFIZER INC., priority 2010, published 2011).

Legend:
Format in all cases: in vivo
[1] = test system: Hard Tick Larvae (Rhipicephalus sanquineus); assay: Hard Tick Larvae (Rhipicephalus sanquineus) Whole Organism Contact Assay; conditions: tick larvae in coated vials; knockdown examined at approximately 24 and 48 hours
Method: Hard Tick Larvae (Rhipicephalus sanquineus) Whole Organism Contact Assay
Formula (1) compounds were dissolved in isopropyl alcohol (IPA) and aliquots were added to vials placed on a roller for at least 2 hours to allow the IPA to evaporate. IPA alone was used as a negative control and fipronil was used as a positive control. Approximately 50-200 tick larvae were added to the vials using a swab and the vials were closed. At approximately 24 and 48 hours, the vials were examined and knockdown was recorded as active. Vials showing knockdown were examined for tick paralysis and/or death at approximately 48 hrs. Endpoint data can be recorded as an effective dose 100% (ED^100) and/or a lethal dose 100% (LD^100) in μg/cm^2.

[2] = test system: Horn Fly (Haematobia irritans); assay: Horn Fly (Haematobia irritans) Feed Assay; conditions: horn flies fed on treated citrated bovine blood; knockdown and mortality at approximately 2 and 24 hours
Method: Horn Fly (Haematobia irritans) Feed Assay
Formula (1) compounds were dissolved in DMSO and aliquots were added to citrated bovine blood in a membrane covered Petri dish. Approximately ten horn flies were placed onto each Petri dish and covered. The flies were allowed to feed on the treated blood cell. Flies were held at approximately 80° F. with a minimum of approximately 50% relative humidity. Flies were examined for knockdown and mortality at approximately 2 and 24 hours. Endpoint data were recorded as a lethal dose 90% (LD^90) in μg/mL.

[3] = test system: Flea (Ctenocephalides felis); assay: Flea (Ctenocephalides felis) Membrane Feed Assay-Adult; conditions: adult fleas fed on treated citrated bovine blood for approximately 2 hours; knockdown and/or death at approximately 2 and 24 hours
Method: Flea (Ctenocephalides felis) Membrane Feed Assay-Adult
Formula (1) compounds were dissolved in DMSO and aliquots were added to citrated bovine blood in a membrane covered Petri dish pre-warmed to 37° C. Feeding tubes containing approximately 30-35 adult fleas were placed onto the Petri dishes. The fleas were allowed to feed for approximately 2 hours. […] Endpoint data were recorded as an efficacious dose 80% (ED^80) in μg/mL.

Structure (SMILES) | ED^100 (effective dose 100%) [1] [μg/cm^2] | LD^90 (lethal dose 90%) [2] [µg/mL] | ED^80 (efficacious dose 80%) [3] [µg/mL]
CCNC(=O)CC(=O)NCc1cc(C2=NOC(c3cc(Cl)c(Cl)c(Cl)c3)(C(F)(F)F)C2)ccc1F (stereo not shown) [Example 1, N-ethyl-N′-{2-fluoro-5-[5-(3,4,5-trichloro-phenyl)-5-trifluoromethyl-4,5-dihydro-isoxazol-3-yl]-benzyl}-malonamide] | 10.0 | – | –
O=C(CC(=O)NCC1CC1)NCc1cc(C2=NOC(c3cc(Cl)c(Cl)c(Cl)c3)(C(F)(F)F)C2)ccc1F (stereo not shown) [Example 2, N-Cyclopropylmethyl-N′-{2-fluoro-5-[5-(3,4,5-trichloro-phenyl)-5-trifluoromethyl-4,5-dihydro-isoxazol-3-yl]-benzyl}-malonamide] | 10.0 | – | –
CC(=O)NCc1cc(C2=NOC(c3cc(Cl)c(Cl)c(Cl)c3)(C(F)(F)F)C2)ccc1F (stereo not shown) [Example 3, N-{5-[5-(3,4,5-trichlorophenyl)-5-(trifluoromethyl)-4,5-dihydroisoxazol-3-yl]-2-fluorobenzyl}acetamide] | – | 10 | 3
CC(C)C(=O)NCc1cc(C2=NOC(c3cc(Cl)c(Cl)c(Cl)c3)(C(F)(F)F)C2)ccc1F (stereo not shown) [Example 4, N-{2-fluoro-5-[5-(3,4,5-trichlorophenyl)-5-(trifluoromethyl)-4,5-dihydroisoxazol-3-yl]benzyl}-2-methylpropanamide] | – | 1 | –
O=C(NCc1cc(C2=NOC(c3cc(Cl)c(Cl)c(Cl)c3)(C(F)(F)F)C2)ccc1F)C1CC1 (stereo not shown) [Example 5, N-{2-fluoro-5-[5-(3,4,5-trichlorophenyl)-5-(trifluoromethyl)-4,5-dihydroisoxazol-3-yl]benzyl}cyclopropanecarboxamide] | – | 1 | 3
O=C(NCc1cc(C2=NOC(c3cc(Cl)c(Cl)c(Cl)c3)(C(F)(F)F)C2)ccc1F)C1CCC1 (stereo not shown) [Example 6, N-{2-fluoro-5-[5-(3,4,5-trichlorophenyl)-5-(trifluoromethyl)-4,5-dihydroisoxazol-3-yl]benzyl}cyclobutanecarboxamide] | – | 3 | 10
CCC(=O)NCc1cc(C2=NOC(c3cc(Cl)c(Cl)c(Cl)c3)(C(F)(F)F)C2)ccc1F (stereo not shown) [Example 7, N-{2-fluoro-5-[5-(3,4,5-trichlorophenyl)-5-(trifluoromethyl)-4,5-dihydroisoxazol-3-yl]benzyl}propanamide] | – | 1 | 10
O=C(CC1CC1)NCc1cc(C2=NOC(c3cc(Cl)c(Cl)c(Cl)c3)(C(F)(F)F)C2)ccc1F (stereo not shown) [Example 8, 2-cyclopropyl-N-{2-fluoro-5-[5-(3,4,5-trichlorophenyl)-5-(trifluoromethyl)-4,5-dihydroisoxazol-3-yl]benzyl}acetamide] | – | 3 | –
CC(C)CC(=O)NCc1cc(C2=NOC(c3cc(Cl)c(Cl)c(Cl)c3)(C(F)(F)F)C2)ccc1F (stereo not shown) [Example 9, N-{2-fluoro-5-[5-(3,4,5-trichlorophenyl)-5-(trifluoromethyl)-4,5-dihydroisoxazol-3-yl]benzyl}-3-methylbutanamide] | – | 3 | –
CC(=O)NCc1cc(C2=NOC(c3cc(Cl)c(F)c(Cl)c3)(C(F)(F)F)C2)ccc1F (stereo not shown) [Example 11, N-{5-[5-(3,5-dichloro-4-fluorophenyl)-5-(trifluoromethyl)-4,5-dihydroisoxazol-3-yl]-2-fluorobenzyl}acetamide] | – | 3 | –
O=C(NCc1cc(C2=NOC(c3cc(Cl)c(F)c(Cl)c3)(C(F)(F)F)C2)ccc1F)C1CC1 (stereo not shown) [Example 12, N-{5-[5-(3,5-dichloro-4-fluorophenyl)-5-(trifluoromethyl)-4,5-dihydroisoxazol-3-yl]-2-fluorobenzyl}cyclopropanecarboxamide] | – | – | 3
O=C(NCc1cc(C2=NOC(c3cc(Cl)c(F)c(Cl)c3)(C(F)(F)F)C2)ccc1F)C1CC(F)(F)C1 (stereo not shown) [Example 13, N-{5-[5-(3,5-dichloro-4-fluorophenyl)-5-(trifluoromethyl)-4,5-dihydroisoxazol-3-yl]-2-fluorobenzyl}-3,3-difluorocyclobutanecarboxamide] | – | – | 3
CC(=O)NCc1cc(C2=NOC(c3cc(Cl)c(F)c(Cl)c3)(C(F)(F)F)C2)ccc1Cl (stereo not shown) [Example 17, N-{2-chloro-5-[5-(3,5-dichloro-4-fluorophenyl)-5-(trifluoromethyl)-4,5-dihydroisoxazol-3-yl]benzyl}acetamide] | – | 1 | –
CC(=O)NCc1cc(C2=NOC(c3cc(Cl)c(Cl)c(Cl)c3)(C(F)(F)F)C2)ccc1Br (stereo not shown) [Example 18, N-(2-bromo-5-(5-(3,4,5-trichlorophenyl)-5-(trifluoromethyl)-4,5-dihydroisoxazol-3-yl)benzyl)acetamide] | – | 1 | 10
